# Tested on: corticospinal neurons (CSNs/CSMNs)
# Test: Laser-capture microdissection and Illumina microarray gene expression in corticospinal neurons contralateral to stroke
# Assay type: in vivo, rat
# Method: In a separate group of animals (n=20), layer V pyramidal cells of the sensorimotor cortex were retrogradely labeled by injecting Alexa-Fluor-488-conjugated cholera toxin B subunit (CTB; 300 U/μl in sterile saline) into the cervical spinal cord. For this, animals were anesthetized with a combination of ketamine and Domitor (medetomidine) and a laminectomy was performed at the cervical level of the spinal cord (C2-C4). CTB was stereotaxically delivered into four sites lateral to the corticospinal tract. Injections (1.3 μl) were spaced 1 mm apart on the rostro-caudal axis, and were made 0.5 mm to the left and right of the midline. After allowing two weeks for transport of the tracer, we performed either sham surgery with no treatment (n=6) or stroke surgery combined with saline (n=3) or inosine (n=4) treatment as described above. Seven days later, animals were decapitated under transient gas anesthesia, brains were removed and rinsed in cold RPMI medium, and a tissue block containing the sensorimotor cortex was dissected and placed in OCT Tissue Tek Medium (Sakura Finetek USA Inc., CA) on dry ice within five minutes of death. Ten μm sections were cut onto precleaned Gold Seal RITE-ON glass slides (Gold Seal Prod-ucts, Portsmouth, N.H.), placed on dry ice, and rapidly stored at −80° C.
# Slide-mounted sections were thawed and dehydrated in RNAse-free ethanol gradients and xylene. Retro-gradely labeled, fluorescent cortical pyramidal cells in the undamaged hemisphere were individually captured using the Arcturus VERITAS system. ≧500 cells were collected from each animal and stored in Arcturus extraction buffer at −80° C. Total RNA was extracted from cells using the Micro-to-Midi TotalRNA Purification System (Invitrogen, Carlsbad Calif.) and double-amplified using the TargetAmp 2-Round Aminoallyl-aRNA Amplification kit 1.0 (Epicentre, Madison, Wis.). Amplified RNA was checked for average fragment length using the Agilent RNA 6000 Nano LabChip kit (Agilent Technologies, Santa Clara, Calif.) and then biotinylated and hybridized (1 μg) on Illumina RatRef-12 Expression BeadChip arrays (Illumina, San Diego Calif.), querying the expression of >22,000 RefSeq-curated rat transcripts. Results were obtained from a total of 15 samples representing 6 untreated controls, 4 animals with stroke treated with saline and 5 animals with stroke treated with inosine. Slides were processed and scanned with Illumina BeadStation platform according to the manufacturer protocol.
# Raw data was analyzed using Bioconductor packages (www.bioconductor.org, (Gentleman et al., 2004)). Low level quality-control analysis was performed using inter-array Pearson correlation and clustering based on variance. Two arrays (1 saline and 1 inosine-treated) were outliers and were excluded from the analysis. Data was normalized using quantile normalization, and analysis of differential expression was performed using a linear model fitting (LIMMA package, (Smyth, 2005). Differentially expressed genes were classified according to gene ontology using Bioconductor packages and online tools (DAVID, http://david.abcc.ncifcrf.gov/). Pathway analysis was carried out using Ingenuity Pathway Analysis (Ingenuity Systems, www.ingenuity.com).
smiles,measurement,setting,value
OC[C@H]1O[C@@H](n2cnc3c(O)ncnc32)[C@H](O)[C@@H]1O [inosine],"Signal Intensity, Sfrs10","ILMN_48507, inosine after stroke",2745
same,"Fold-Induction Stroke, ino vs. cntrl, Scarb2",ILMN_48587,0.71
same,"Signal Intensity, Scarb2","ILMN_48587, inosine after stroke",569
same,"Fold-Induction Stroke, ino vs. cntrl, Sec6l1",ILMN_48688,0.84
same,"Signal Intensity, Sec6l1","ILMN_48688, inosine after stroke",587
same,"Fold-Induction Stroke, ino vs. cntrl, Ube4a",ILMN_49300,0.58
same,"Signal Intensity, Ube4a","ILMN_49300, inosine after stroke",1509
same,"Fold-Induction Stroke, ino vs. cntrl, LOC501195",ILMN_49366,0.77
same,"Signal Intensity, LOC501195","ILMN_49366, inosine after stroke",1460
same,"Fold-Induction Stroke, ino vs. cntrl, Kcnc2",ILMN_49569,0.73
same,"Signal Intensity, Kcnc2","ILMN_49569, inosine after stroke",4642
same,"Fold-Induction Stroke, ino vs. cntrl, Arfrp1",ILMN_49739,0.93
same,"Signal Intensity, Arfrp1","ILMN_49739, inosine after stroke",1014
same,"Fold-Induction Stroke, ino vs. cntrl, Dmp1",ILMN_49819,0.38
same,"Signal Intensity, Dmp1","ILMN_49819, inosine after stroke",267
same,"Fold-Induction Stroke, ino vs. cntrl, Ralbp1",ILMN_49884,0.75
same,"Signal Intensity, Ralbp1","ILMN_49884, inosine after stroke",1553
same,"Fold-Induction Stroke, ino vs. cntrl, Snx2",ILMN_50221,0.66
same,"Signal Intensity, Snx2","ILMN_50221, inosine after stroke",1681
same,"Fold-Induction Stroke, ino vs. cntrl, Rpn2",ILMN_50467,0.71
same,"Signal Intensity, Rpn2","ILMN_50467, inosine after stroke",835
same,"Fold-Induction Stroke, ino vs. cntrl, RAMP4",ILMN_50573,0.75
same,"Signal Intensity, RAMP4","ILMN_50573, inosine after stroke",544
same,"Fold-Induction Stroke, ino vs. cntrl, Cdc37l",ILMN_50686,0.83
same,"Signal Intensity, Cdc37l","ILMN_50686, inosine after stroke",625
same,"Fold-Induction Stroke, ino vs. cntrl, LOC498489",ILMN_50922,0.49
same,"Signal Intensity, LOC498489","ILMN_50922, inosine after stroke",603
same,"Fold-Induction Stroke, ino vs. cntrl, Ube2m",ILMN_50967,0.59
same,"Signal Intensity, Ube2m","ILMN_50967, inosine after stroke",332
same,"Fold-Induction Stroke, ino vs. cntrl, LOC499428",ILMN_51108,0.50
same,"Signal Intensity, LOC499428","ILMN_51108, inosine after stroke",678
same,"Fold-Induction, complement cascade gene C3","ILMN_51249, LCM-captured CSMNs contralateral a stroke",2.17 fold
same,"Fold-induction CSMNs: LOC305633, (P) Antxr2 protein","ILMN_51277, over and above inosine's effect of decreasing stroke-induced changes",3.13 fold
same,"Fold-Induction Stroke, ino vs. cntrl, Ik",ILMN_51588,0.83
same,"Signal Intensity, Ik","ILMN_51588, inosine after stroke",417
same,"Fold-Induction Stroke, ino vs. cntrl, LOC499767",ILMN_51716,0.64
same,"Signal Intensity, LOC499767","ILMN_51716, inosine after stroke",1723
same,"Fold-Induction Stroke, ino vs. cntrl, LOC497777",ILMN_51717,0.58
same,"Signal Intensity, LOC497777","ILMN_51717, inosine after stroke",577
same,"Fold-Induction Stroke, ino vs. cntrl, Tspan3",ILMN_51868,0.47
same,"Signal Intensity, Tspan3","ILMN_51868, inosine after stroke",3842
same,"Fold-Induction Stroke, ino vs. cntrl, LOC360807",ILMN_51947,0.50
same,"Signal Intensity, LOC360807","ILMN_51947, inosine after stroke",689
same,"Fold-Induction Stroke, ino vs. cntrl, LOC498931",ILMN_51968,0.54
same,"Signal Intensity, LOC498931","ILMN_51968, inosine after stroke",554
same,"Fold-Induction Stroke, ino vs. cntrl, LOC501619",ILMN_51972,0.59
same,"Signal Intensity, LOC501619","ILMN_51972, inosine after stroke",416
same,"Fold-Induction Stroke, ino vs. cntrl, Scd2",ILMN_52257,0.42
same,"Signal Intensity, Scd2","ILMN_52257, inosine after stroke",3009
same,"Fold-Induction Stroke, ino vs. cntrl, LOC317508",ILMN_52577,0.58
same,"Signal Intensity, LOC317508","ILMN_52577, inosine after stroke",493
same,"Fold-Induction Stroke, ino vs. cntrl, Nedd9",ILMN_52827,0.73
same,"Signal Intensity, Nedd9","ILMN_52827, inosine after stroke",550
same,"Fold-Induction Stroke, ino vs. cntrl, Atp6v1h",ILMN_52968,0.62
same,"Signal Intensity, Atp6v1h","ILMN_52968, inosine after stroke",525
same,"Fold-Induction Stroke, ino vs. cntrl, MGC94339",ILMN_52985,0.70
same,"Signal Intensity, MGC94339","ILMN_52985, inosine after stroke",547
same,"Fold-Induction Stroke, ino vs. cntrl, Ube2e3",ILMN_53046,0.61
same,"Signal Intensity, Ube2e3","ILMN_53046, inosine after stroke",434
same,"Fold-Induction Stroke, ino vs. cntrl, Arpc3",ILMN_53076,0.68
same,"Signal Intensity, Arpc3","ILMN_53076, inosine after stroke",423
same,Fold-induction CSMNs: Irf1,"ILMN_53085, over and above inosine's effect of decreasing stroke-induced changes",1.83 fold
same,"Fold-Induction Stroke, ino vs. cntrl, LOC309362",ILMN_53195,1.02
same,"Signal Intensity, LOC309362","ILMN_53195, inosine after stroke",498
same,"Fold-Induction Stroke, ino vs. cntrl, Hat1",ILMN_53256,0.69
same,"Signal Intensity, Hat1","ILMN_53256, inosine after stroke",362
same,"Fold-Induction Stroke, ino vs. cntrl, LOC499978",ILMN_53292,0.72
same,"Signal Intensity, LOC499978","ILMN_53292, inosine after stroke",970
same,"Fold-induction CSMNs: LOC498335, (P) Small inducible cytokine B13 precursor (CXCL13)","ILMN_53325, over and above inosine's effect of decreasing stroke-induced changes",11.42 fold
same,Fold-induction CSMNs: Mt1a (Metallothionein),"ILMN_53575, over and above inosine's effect of decreasing stroke-induced changes",2.69 fold
same,"Fold-Induction Stroke, ino vs. cntrl, Cnbp1",ILMN_53694,0.76
same,"Signal Intensity, Cnbp1","ILMN_53694, inosine after stroke",4491
same,"Fold-Induction Stroke, ino vs. cntrl, MGC94053",ILMN_53763,0.59
